Key:
[1] = test system: orthotopic MCF7 human breast cancer cell line xenograft; assay: Anti-tumor efficacy against orthotopic MCF7 human breast cancer cell line xenograft in NOD/SCID mice; type: in vivo, female NOD/SCID mice; conditions: for Tumor volume changes from baseline: Median: amcenestrant 10 mg/kg BID, everolimus 10 mg/kg BIW; for Regressions Complete: animals with complete regression / animals in group; for Regressions Complete / Regressions Partial / Median % of regressions on day 28 / ΔT/ΔC in % at day 28: amcenestrant 10 mg/kg PO BID, everolimus 10 mg/kg PO BIW; for Regressions Partial: animals with partial regression / animals in group; for Biological Interpretation: based on ΔT/ΔC at day 28; for ΔT/ΔC in % at day 28: 28 days
Procedure: In the present study, the anti-tumor efficacy of amcenestrant combined with everolimus was investigated after 28 days treatment against an orthotopic MCF7 human breast cancer cell line xenograft in female NOD/SCID mice.
The treated groups included amcenestrant at 10 mg/kg alone, everolimus at 10 mg/kg alone, and the combination of amcenestrant and everolimus at the same dose and regime.
For 28 days, amcenestrant was orally dosed twice a day (BID), and everolimus was orally dosed twice a week (BIW). Anti-tumor efficacy was evaluated by tumor volume measurement.
Female NOD/SCID mice were obtained from GemPharmatech Co., Ltd (Nanjing University National Resource Center for Mutant Mice, Model Animal Research Center) (Nanjing, CHINA). Animals were allowed to acclimate for at least four days before the study enrollment. Mice were 7 to 8 weeks old and weighed between 22.5 and 28.4 grams at the beginning of the treatments. These animals were housed under conditions outlined in the guidelines approved by the Institutional Animal Care and Use Committee (IACUC) of CrownBio following the guidance of the Association for Assessment and Accreditation of Laboratory Animal Care (AAALAC).
MCF7 cells were obtained from the American Type Culture Collection (ATCC® HTB-22™). The MCF7 tumor cells were maintained in vitro with MEM medium supplemented with 10% fetal bovine serum, 0.01 mM non-essential amino acid, 0.01 mg/ml bovine insulin, and 2 mM L-glutamine at 37° C. in an atmosphere of 5% CO2 in air. The cells in exponential growth phase were harvested and quantitated by cell counter before tumor inoculation.
The mouse was subcutaneously implanted with estrogen pellets (0.18 mg/pellet, 17β-estradiol, Innovative Research of America, Sarasota, Florida, USA), hereafter referred to as “E2 supplement”, at the right flank one day before the tumor inoculation. Each mouse was inoculated with MCF-7 tumor cells (2×10 e7) in 0.25 ml of PBS/Matrigel (1:1) mixture at the right mammary fat pad for tumor development.
Everolimus (Manufacturer: Selleck; Lot number: S1120) was formulated in 30% propylene glycol (dissolve first): 5% Tween 80: 65% ddH2O (double distilled water).
Dose volume for amcenestrant and everolimus for oral administration: 10 ml/kg.
Doses: amcenestrant at 10 mg/kg and everolimus at 10 mg/kg in the above volume.
Animal body weight was assessed daily.
Vehicle treated animals were used as controls.
The primary efficacy end points include tumor volume changes from baseline summarized by the ratio of medians of tumor volume changes from baseline between the treated and control groups (ΔT/ΔC). Changes in tumor volume for each treated (T) and control (C) group were calculated for each animal on each day by subtracting the tumor volume on the day of first treatment (staging day) from the tumor volume on the specified observation day. The median ΔT was calculated for the treated group and the median ΔC was calculated for the control group. The ratio ΔT/ΔC was calculated and expressed as percentage: […]
Percent tumor regression is defined as % (percentage) of tumor volume decrease in the treated group on a specified observation day compared to its volume when the study was initiated. At a specific time point (t) and for each animal, the regression percentage was calculated using the following formula: […]
The median percent regression for a group on a given day was then calculated by taking the median of individual % regression values calculated for each animal in the group. The day of calculation was determined by the day when ΔT/ΔC is calculated, except if median percent regression was not representative of the activity of the group. In this case, the day was determined by the first day when the median percent regression was maximal.
A two-way analysis of variance (ANOVA) with factors treatment and day (repeated) was performed on tumor volume changes from baseline.

[2] = amcenestrant 10 mg/kg BID, everolimus 10 mg/kg BIW, 28 days
Procedure: The animals required for experiment (plus extra) were pooled and implanted with MCF7 cells. On day 0 (12 days post implantation), the mice were pooled and randomly distributed to the treatment and control groups (10 mice per group), where median tumor volumes for each group was 119 mm^3. Treatments of amcenestrant and everolimus were initiated on day 1. For 28 days, amcenestrant was orally administered at 10 mg/kg BID (8 hours apart), and everolimus was orally administered at 10 mg/kg BIW. Animal body weight was assessed daily.
The dosages are expressed in mg/kg and based on daily body weight per animal. Vehicle treated animals were used as controls. Mice were checked daily for adverse clinical reactions. Individual mice were weighed daily until the end of the experiment. Mice were euthanized when morbid or weight loss ≥20% was observed. Tumors were measured with a caliper twice weekly until final sacrifice. When a tumor size reached approximately 3000 mm^3 or when there were animal health issues (40% area of a tumor ulcerated), animals were euthanized, and date of death recorded. Solid tumor volumes were estimated from two-dimensional tumor measurements and calculated according to the following equation:
Animal body weight included the tumor weight.

Row | Compound | Tumor volume changes from baseline: Median ([1]; Day 4) [mm^3] | Tumor volume changes from baseline: Median ([1]; Day 7) [mm^3] | Tumor volume changes from baseline: Median ([1]; Day 11) [mm^3] | Tumor volume changes from baseline: Median ([1]; Day 14) [mm^3] | Tumor volume changes from baseline: Median ([1]; Day 18) [mm^3] | Tumor volume changes from baseline: Median ([1]; Day 21) [mm^3] | Tumor volume changes from baseline: Median ([1]; Day 25) [mm^3] | Tumor volume changes from baseline: Median ([1]; Day 28) [mm^3] | Regressions Complete [1] | Regressions Partial [1] | Biological Interpretation [1] | Median % of regressions on day 28 [1] [%] | ΔT/ΔC in % at day 28 [1] [%] | Drug-related body weight loss/animal death [2]
1 | O=C(O)c1ccc2c(c1)CCCC(c1ccc(Cl)cc1Cl)=C2c1ccc(O[C@H]2CCN(CCCF)C2)cc1 [Amcenestrant, 6-(2,4-dichlorophenyl)-5-[4-[(3S)-1-(3-fluoropropyl)pyrrolidin-3-yl]oxyphenyl]-8,9-dihydro-7H-benzo[7]annulene-2-carboxylic acid] | 22.0 | 32.5 | 60.0 | 76.5 | 40.0 | −2.0 | −38.0 | −42.0 | 0/9 | 8/9 | Very active (ΔT/ΔC<0% is considered as tumor regression (very active)) | −13 | −13 | no drug-related body weight loss/animal death was observed
2 | CO[C@H]1C[C@@H]2CC[C@@H](C)[C@@](O)(O2)C(=O)C(=O)N2CCCC[C@H]2C(=O)O[C@H]([C@H](C)C[C@@H]2CC[C@@H](OCCO)[C@H](OC)C2)CC(=O)[C@H](C)/C=C(\C)[C@@H](O)[C@@H](OC)C(=O)[C@H](C)C[C@H](C)/C=C/C=C/C=C/1C [Everolimus] | 28.5 | 48.0 | 65.0 | 81.5 | 10.0 | −48.0 | −47.0 | −53.0 | 0/6 | 5/6 | Very active (ΔT/ΔC<0% is considered as tumor regression (very active)) | −17 | −17 | no drug-related body weight loss/animal death was observed

— patent US20240197692A1, “Combination Comprising Everolimus and Amcenestrant” (Sanofi, priority 2021, published 2024)
